In patent US10870647B2, “Imidazopyridine derivative, method for preparing same, and pharmaceutical composition containing same as active ingredient for preventing or treating cancer” (DAEGU-GYEONGBUK MEDICAL INNOVATION FOUNDATION, priority 2016, dated 2020):

Experiments:
Test in all cases: Kinase selectivity, scanMAX Kinase assay panel (DiscoverX), % control at 1 uM
Format in all cases: binding
[1] = biological target: T1, scanMAX Kinase assay panel (Homo sapiens, UniProt O00329); conditions: PIK3CD; 1 uM; read-out: Percent Control (%)
T1 construct: purchased DiscoverX
T1 sequence (O00329 1-1044): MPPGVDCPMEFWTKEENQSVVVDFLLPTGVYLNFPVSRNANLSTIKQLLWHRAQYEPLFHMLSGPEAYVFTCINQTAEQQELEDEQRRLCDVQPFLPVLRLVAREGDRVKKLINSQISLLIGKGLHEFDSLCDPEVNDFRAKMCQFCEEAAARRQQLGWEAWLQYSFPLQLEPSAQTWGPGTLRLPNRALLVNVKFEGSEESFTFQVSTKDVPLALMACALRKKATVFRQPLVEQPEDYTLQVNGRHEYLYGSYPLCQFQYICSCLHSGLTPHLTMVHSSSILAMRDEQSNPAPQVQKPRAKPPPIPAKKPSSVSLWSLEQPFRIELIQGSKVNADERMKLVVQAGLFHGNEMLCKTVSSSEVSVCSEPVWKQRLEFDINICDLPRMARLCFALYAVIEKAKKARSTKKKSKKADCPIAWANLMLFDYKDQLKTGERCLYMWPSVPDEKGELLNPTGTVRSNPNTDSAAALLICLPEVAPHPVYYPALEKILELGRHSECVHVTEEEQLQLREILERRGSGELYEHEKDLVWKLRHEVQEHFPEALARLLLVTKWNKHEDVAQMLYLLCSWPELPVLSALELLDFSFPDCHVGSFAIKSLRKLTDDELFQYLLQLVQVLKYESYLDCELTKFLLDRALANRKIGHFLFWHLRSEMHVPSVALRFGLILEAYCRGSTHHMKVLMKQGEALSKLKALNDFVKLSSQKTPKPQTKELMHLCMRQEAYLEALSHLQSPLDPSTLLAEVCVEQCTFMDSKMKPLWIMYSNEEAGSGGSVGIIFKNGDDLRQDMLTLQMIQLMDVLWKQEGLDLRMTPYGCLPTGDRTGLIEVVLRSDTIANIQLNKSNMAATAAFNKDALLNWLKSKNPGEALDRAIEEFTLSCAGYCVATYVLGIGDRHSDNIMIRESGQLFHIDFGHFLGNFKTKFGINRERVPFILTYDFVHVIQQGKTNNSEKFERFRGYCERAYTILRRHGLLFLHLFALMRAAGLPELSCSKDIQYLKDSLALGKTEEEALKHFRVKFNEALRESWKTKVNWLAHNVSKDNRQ
How it was run: (§1)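 Compounds were tested at 1 uM in DMSO against each enzyme in the panel. Percent control was calculated as (compound − positive control)/(negative control − positive control) × 100, and a compound was scored active on a kinase when this value fell below 35.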

[2] = biological target: T2, scanMAX Kinase assay panel (Homo sapiens, UniProt O94921); conditions: PFTK1; 1 uM; read-out: Percent Control (%)
T2 construct: purchased DiscoverX
How it was run: as §1

[3] = biological target: T3, scanMAX Kinase assay panel (Homo sapiens, UniProt P49841); conditions: GSK3B; 1 uM; read-out: Percent Control (%)
T3 construct: purchased DiscoverX
How it was run: as §1

[4] = biological target: T4, scanMAX Kinase assay panel (Homo sapiens, UniProt P57058); conditions: HUNK; 1 uM; read-out: Percent Control (%)
T4 construct: purchased DiscoverX
T4 sequence (P57058 1-714): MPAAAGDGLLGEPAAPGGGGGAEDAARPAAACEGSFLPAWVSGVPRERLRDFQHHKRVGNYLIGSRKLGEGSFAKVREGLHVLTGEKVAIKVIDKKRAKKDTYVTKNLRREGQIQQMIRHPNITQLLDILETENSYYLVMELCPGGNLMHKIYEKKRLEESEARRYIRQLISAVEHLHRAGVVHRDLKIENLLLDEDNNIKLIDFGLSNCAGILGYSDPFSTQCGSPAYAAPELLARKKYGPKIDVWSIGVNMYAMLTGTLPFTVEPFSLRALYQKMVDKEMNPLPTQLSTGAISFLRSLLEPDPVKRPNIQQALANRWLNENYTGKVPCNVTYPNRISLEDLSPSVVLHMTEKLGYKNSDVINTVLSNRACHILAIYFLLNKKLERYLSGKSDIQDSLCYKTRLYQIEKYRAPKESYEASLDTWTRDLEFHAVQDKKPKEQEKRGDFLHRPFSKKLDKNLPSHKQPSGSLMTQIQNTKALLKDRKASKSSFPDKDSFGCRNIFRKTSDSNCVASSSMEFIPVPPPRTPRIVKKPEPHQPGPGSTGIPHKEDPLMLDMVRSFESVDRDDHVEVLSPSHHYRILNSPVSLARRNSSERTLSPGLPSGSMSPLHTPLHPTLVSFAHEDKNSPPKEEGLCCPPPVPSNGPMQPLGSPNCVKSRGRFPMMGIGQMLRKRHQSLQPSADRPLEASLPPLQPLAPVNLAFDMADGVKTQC
How it was run: as §1

[5] = biological target: T5, scanMAX Kinase assay panel (Homo sapiens, UniProt Q8IWQ3); conditions: BRSK2; 1 uM; read-out: Percent Control (%)
T5 construct: purchased DiscoverX
T5 sequence (Q8IWQ3 1-736): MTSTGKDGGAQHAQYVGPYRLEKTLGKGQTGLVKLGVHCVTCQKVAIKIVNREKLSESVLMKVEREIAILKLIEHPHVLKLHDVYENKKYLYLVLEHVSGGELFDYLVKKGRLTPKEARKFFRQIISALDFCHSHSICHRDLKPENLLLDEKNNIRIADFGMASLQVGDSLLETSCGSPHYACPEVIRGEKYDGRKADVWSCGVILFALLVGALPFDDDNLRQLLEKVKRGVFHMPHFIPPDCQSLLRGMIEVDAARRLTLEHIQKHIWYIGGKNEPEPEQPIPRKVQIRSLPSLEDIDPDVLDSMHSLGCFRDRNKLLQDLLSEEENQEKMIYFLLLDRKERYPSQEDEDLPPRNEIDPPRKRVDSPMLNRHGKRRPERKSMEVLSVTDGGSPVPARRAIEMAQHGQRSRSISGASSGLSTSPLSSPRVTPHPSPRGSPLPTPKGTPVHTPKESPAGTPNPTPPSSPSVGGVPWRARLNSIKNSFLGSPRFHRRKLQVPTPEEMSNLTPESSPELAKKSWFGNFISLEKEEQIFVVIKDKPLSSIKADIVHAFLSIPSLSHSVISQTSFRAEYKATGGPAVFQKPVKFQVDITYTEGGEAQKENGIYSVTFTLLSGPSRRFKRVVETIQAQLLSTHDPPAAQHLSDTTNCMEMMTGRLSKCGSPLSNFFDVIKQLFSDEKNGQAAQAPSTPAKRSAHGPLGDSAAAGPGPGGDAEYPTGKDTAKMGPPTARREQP
How it was run: as §1

T3 sequence (P49841 whole entry): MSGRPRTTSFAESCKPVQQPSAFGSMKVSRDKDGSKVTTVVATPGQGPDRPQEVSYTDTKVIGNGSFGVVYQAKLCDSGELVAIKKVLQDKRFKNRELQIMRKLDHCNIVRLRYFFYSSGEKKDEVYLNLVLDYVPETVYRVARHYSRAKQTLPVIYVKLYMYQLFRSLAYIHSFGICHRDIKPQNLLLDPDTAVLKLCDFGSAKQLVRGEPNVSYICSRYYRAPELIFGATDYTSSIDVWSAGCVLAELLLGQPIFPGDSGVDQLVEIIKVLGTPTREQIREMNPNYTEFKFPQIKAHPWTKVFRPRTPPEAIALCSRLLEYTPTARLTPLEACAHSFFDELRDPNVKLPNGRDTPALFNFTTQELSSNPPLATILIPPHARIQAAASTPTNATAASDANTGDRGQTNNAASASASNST
T2 sequence (O94921 whole entry): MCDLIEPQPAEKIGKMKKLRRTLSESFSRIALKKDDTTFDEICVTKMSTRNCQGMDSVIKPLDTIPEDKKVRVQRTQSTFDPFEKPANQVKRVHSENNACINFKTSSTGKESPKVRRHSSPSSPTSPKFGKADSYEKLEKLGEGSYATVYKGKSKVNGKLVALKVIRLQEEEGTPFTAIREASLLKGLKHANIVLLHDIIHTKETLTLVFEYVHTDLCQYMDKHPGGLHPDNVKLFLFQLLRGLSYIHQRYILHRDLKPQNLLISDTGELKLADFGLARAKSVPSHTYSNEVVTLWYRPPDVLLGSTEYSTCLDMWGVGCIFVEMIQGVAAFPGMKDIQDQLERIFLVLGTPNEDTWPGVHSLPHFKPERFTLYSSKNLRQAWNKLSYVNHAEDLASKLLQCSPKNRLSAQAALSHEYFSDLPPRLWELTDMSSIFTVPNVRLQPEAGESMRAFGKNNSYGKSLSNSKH

| SMILES | remaining binding at 1 µM [1] [%] | remaining binding at 1 µM [2] [%] | remaining binding at 1 µM [3] [%] | remaining binding at 1 µM [4] [%] | remaining binding at 1 µM [5] [%] |
| --- | --- | --- | --- | --- | --- |
| Cc1ccc(C(=O)Nc2ccc(CN3CCN(C)CC3)c(C(F)(F)F)c2)cc1C#Cc1cnc2c(Nc3cnn(C)c3)cccn12 [Example 1, 4-methyl-3-((8-((1-methyl-1H-pyrazol-4-yl)amino)imidazo[1,2-a]pyridin-3-yl)ethynyl)-N-(4-((4-methylpiperazin-1-yl)methyl)-3-(trifluoromethyl)phenyl)benzamide] | 89 | 11 | 79 | 74 | 96 |
| Cc1cn(-c2cc(NC(=O)c3ccc(C)c(C#Cc4cnc5c(Nc6cnn(C)c6)cccn45)c3)cc(C(F)(F)F)c2)cn1 [Example 12, 4-methyl-N-(3-(4-methyl-1H-imidazol-1-yl)-5-(trifluoromethyl)phenyl)-3-((8-((1-methyl-1H-pyrazol-4-yl)amino)imidazo[1,2-a]pyridin-3-yl)ethynyl)benzamide] | 100 | 87 | 85 | 79 | 87 |
| Cc1ccc(NC(=O)C2(C(=O)Nc3ccc(F)cc3)CC2)cc1C#Cc1cnc2c(Nc3cnn(C(C)C)c3)cccn12 [Example 78] | 100 | 100 | 96 | 93 | 100 |
